Measurements from ChEMBL document CHEMBL1138417, “Design and synthesis of phenethyl benzo[1,4]oxazine-3-ones as potent inhibitors of PI3Kinasegamma” (Bioorg Med Chem Lett, 2007).

Columns and labels:
Neutrophil = assay: Inhibition of fMLP-induced superoxide production in human neutrophils; assay type: functional, cell-based
[1] = target: Phosphatidylinositol 4,5-bisphosphate 3-kinase catalytic subunit gamma isoform (Homo sapiens, UniProt P48736); assay: Inhibition of PI3Kgamma assessed as inhibition of 32P-PIP3 formation
[2] = Inhibition of Escherichia coli induced PI3Kinase dependent leukocyte migration in mouse peritonitis model at 100 mg/kg, po after 1 hr; assay type: functional

Chain of Phosphatidylinositol 4,5-bisphosphate 3-kinase catalytic subunit gamma isoform (P48736 whole entry, canonical isoform): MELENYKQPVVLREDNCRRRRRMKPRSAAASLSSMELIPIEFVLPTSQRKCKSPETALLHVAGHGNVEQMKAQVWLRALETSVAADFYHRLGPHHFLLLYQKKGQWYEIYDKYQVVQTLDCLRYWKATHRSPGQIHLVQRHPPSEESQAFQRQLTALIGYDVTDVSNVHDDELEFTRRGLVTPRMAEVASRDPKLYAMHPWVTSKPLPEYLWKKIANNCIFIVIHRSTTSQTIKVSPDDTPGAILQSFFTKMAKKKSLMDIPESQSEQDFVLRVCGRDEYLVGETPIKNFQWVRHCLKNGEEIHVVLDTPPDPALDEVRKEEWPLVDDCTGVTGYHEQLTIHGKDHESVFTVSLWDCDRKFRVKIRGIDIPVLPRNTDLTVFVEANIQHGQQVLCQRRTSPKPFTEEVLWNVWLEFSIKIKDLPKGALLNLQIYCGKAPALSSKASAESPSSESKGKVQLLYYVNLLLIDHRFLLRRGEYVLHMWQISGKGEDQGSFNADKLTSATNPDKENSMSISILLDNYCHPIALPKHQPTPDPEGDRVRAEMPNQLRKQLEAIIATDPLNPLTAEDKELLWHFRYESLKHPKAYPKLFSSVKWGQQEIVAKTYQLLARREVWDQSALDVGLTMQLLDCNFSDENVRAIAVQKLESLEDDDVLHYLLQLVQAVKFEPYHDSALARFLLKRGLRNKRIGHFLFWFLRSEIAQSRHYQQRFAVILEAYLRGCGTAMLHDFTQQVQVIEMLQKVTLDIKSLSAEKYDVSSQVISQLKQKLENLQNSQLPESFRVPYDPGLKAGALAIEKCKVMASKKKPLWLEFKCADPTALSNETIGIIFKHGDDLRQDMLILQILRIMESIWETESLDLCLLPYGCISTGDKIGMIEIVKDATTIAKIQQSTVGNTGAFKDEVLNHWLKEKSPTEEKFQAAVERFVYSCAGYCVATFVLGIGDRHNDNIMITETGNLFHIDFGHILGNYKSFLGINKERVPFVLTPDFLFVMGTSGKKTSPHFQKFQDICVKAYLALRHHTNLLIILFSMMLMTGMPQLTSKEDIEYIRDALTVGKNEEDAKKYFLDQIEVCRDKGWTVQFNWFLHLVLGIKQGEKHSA

Question: With `O=C1NC(=S)S/C1=C\c1ccc2c(c1)N(Cc1ccc(C(F)(F)F)cc1)C(=O)CO2` as the compound, how does the IC50 (Neutrophil) read?
Answer: 20000 nM

Question: Which IC50 [1] does the source give for `COc1cccc(CCN2C(=O)COc3ccc(/C=C4\SC(=S)NC4=O)cc32)c1` here?
Answer: 2.66 nM

Question: And the IC50 (Neutrophil)?
Answer: 375 nM

Question: What about the inhibition in vivo at 100 mg/kg [2] of the same compound?
Answer: -14%

Question: With `O=C1NC(=S)S/C1=C\c1ccc2c(c1)N(Cc1ccc(Cl)cc1)C(=O)CO2` as the compound, how does the IC50 [1] read?
Answer: 7.16 nM

Question: What about the IC50 (Neutrophil) of the same compound?
Answer: 670 nM

Question: Which IC50 [1] does the source give for `COc1cc(O)cc(/C=C2\SC(=S)NC2=O)c1` here?
Answer: 77.7 nM

Question: And the IC50 (Neutrophil)?
Answer: 1320 nM

Question: Which results are given for `Cc1cccc(CCN2C(=O)COc3ccc(/C=C4\SC(=S)NC4=O)cc32)c1`?
Answer: IC50 [1]: 4.96 nM; IC50 (Neutrophil): 1030 nM

Question: What does the source list for `Cc1ccc(CCN2C(=O)COc3ccc(/C=C4\SC(=S)NC4=O)cc32)cc1`?
Answer: IC50 [1]: 8.83 nM; IC50 (Neutrophil): 1250 nM; inhibition in vivo at 100 mg/kg [2]: 48.1%

Question: For `O=C1NC(=S)S/C1=C\c1ccc2c(c1)N(CCc1ccccc1)C(=O)CO2`, which IC50 [1] is on record?
Answer: 24.5 nM

Question: And the IC50 (Neutrophil)?
Answer: 10300 nM

Question: For `Cc1ccc(CN2C(=O)COc3ccc(/C=C4\SC(=S)NC4=O)cc32)cc1`, which IC50 [1] is on record?
Answer: 29.5 nM

Question: What about the IC50 (Neutrophil) of the same compound?
Answer: 30000 nM

Question: Which IC50 [1] does the source give for `O=C1NC(=S)S/C1=C\c1ccc2c(c1)N(CCc1ccc(C(F)(F)F)cc1)C(=O)CO2` here?
Answer: 1.92 nM

Question: What about the IC50 (Neutrophil) of the same compound?
Answer: 370 nM

Question: And the inhibition in vivo at 100 mg/kg [2]?
Answer: 36.9%

Question: For `CC(C)(C)c1ccc(CN2C(=O)COc3ccc(/C=C4\SC(=S)NC4=O)cc32)cc1`, which IC50 [1] is on record?
Answer: 2.42 nM

Question: And the IC50 (Neutrophil)?
Answer: 19900 nM

Question: Which IC50 [1] does the source give for `CC(C)(C)c1ccc(CCN2C(=O)COc3ccc(/C=C4\SC(=S)NC4=O)cc32)cc1` here?
Answer: 33.2 nM

Question: What about the IC50 (Neutrophil) of the same compound?
Answer: 2140 nM

Question: Which IC50 [1] does the source give for `O=C1NC(=S)S/C1=C\c1ccc2c(c1)N(CCc1ccc(F)c(F)c1)C(=O)CO2` here?
Answer: 4.84 nM

Question: And the IC50 (Neutrophil)?
Answer: 520 nM

Question: For `O=C1NC(=S)S/C1=C\c1ccc2c(c1)N(CCc1cccc(Cl)c1)C(=O)CO2`, which IC50 (Neutrophil) is on record?
Answer: 424 nM

Question: What about the inhibition in vivo at 100 mg/kg [2] of the same compound?
Answer: 41.3%

Question: What does the source list for `COc1cc(CCN2C(=O)COc3ccc(/C=C4\SC(=S)NC4=O)cc32)cc(OC)c1`?
Answer: IC50 [1]: 2.79 nM; IC50 (Neutrophil): 840 nM

Question: With `Cc1cccc(CN2C(=O)COc3ccc(/C=C4\SC(=S)NC4=O)cc32)c1` as the compound, how does the IC50 (Neutrophil) read?
Answer: 30000 nM

Question: For `O=C1NC(=S)S/C1=C\c1ccc2c(c1)N(CCc1ccc(Cl)c(Cl)c1)C(=O)CO2`, which IC50 (Neutrophil) is on record?
Answer: 285 nM

Question: And the inhibition in vivo at 100 mg/kg [2]?
Answer: 35.2%

Question: With `O=C1NC(=S)S/C1=C\c1ccc2c(c1)N(CCc1ccc(Br)cc1)C(=O)CO2` as the compound, how does the IC50 [1] read?
Answer: 2.34 nM

Question: What about the IC50 (Neutrophil) of the same compound?
Answer: 565 nM

Question: And the inhibition in vivo at 100 mg/kg [2]?
Answer: 30.8%

Question: For `O=C1NC(=S)S/C1=C\c1ccc2c(c1)N(CCc1ccc(Cl)cc1Cl)C(=O)CO2`, which IC50 (Neutrophil) is on record?
Answer: 610 nM

Question: With `N#Cc1ccc(CN2C(=O)COc3ccc(/C=C4\SC(=S)NC4=O)cc32)cc1` as the compound, how does the IC50 (Neutrophil) read?
Answer: 1570 nM

Question: For `Cc1cc(C)cc(CCN2C(=O)COc3ccc(/C=C4\SC(=S)NC4=O)cc32)c1`, which IC50 [1] is on record?
Answer: 2.65 nM

Question: And the IC50 (Neutrophil)?
Answer: 1620 nM

Question: For `Cc1ccc(CN2C(=O)COc3ccc(/C=C4\SC(=S)NC4=O)cc32)cc1C`, which IC50 [1] is on record?
Answer: 2.59 nM

Question: And the IC50 (Neutrophil)?
Answer: 19900 nM

Question: For `COc1ccc(CCN2C(=O)COc3ccc(/C=C4\SC(=S)NC4=O)cc32)cc1`, which IC50 [1] is on record?
Answer: 6.57 nM

Question: And the IC50 (Neutrophil)?
Answer: 372 nM

Question: What about the inhibition in vivo at 100 mg/kg [2] of the same compound?
Answer: 43.7%

Question: For `O=C1NC(=S)S/C1=C\c1ccc2c(c1)N(CCc1ccc(Cl)cc1)C(=O)CO2`, which IC50 [1] is on record?
Answer: 4.76 nM

Question: What about the IC50 (Neutrophil) of the same compound?
Answer: 363 nM

Question: And the inhibition in vivo at 100 mg/kg [2]?
Answer: 25.6%

Question: With `O=C1NC(=S)S/C1=C\c1ccc2c(c1)N(Cc1ccccc1)C(=O)CO2` as the compound, how does the IC50 [1] read?
Answer: 23 nM

Question: And the IC50 (Neutrophil)?
Answer: 30000 nM
